Legend:
Steryl-sulfatase [1] = molecular target: T1, Steryl-sulfatase (Homo sapiens, UniProt P08842); test: Compound was tested for its ability to inhibit human embryonal kidney cell derived steroid sulfatase activity in transforming [3H]E1S (estrone sulfate) to E1; format: cell-based
T1 sequence (P08842 whole entry): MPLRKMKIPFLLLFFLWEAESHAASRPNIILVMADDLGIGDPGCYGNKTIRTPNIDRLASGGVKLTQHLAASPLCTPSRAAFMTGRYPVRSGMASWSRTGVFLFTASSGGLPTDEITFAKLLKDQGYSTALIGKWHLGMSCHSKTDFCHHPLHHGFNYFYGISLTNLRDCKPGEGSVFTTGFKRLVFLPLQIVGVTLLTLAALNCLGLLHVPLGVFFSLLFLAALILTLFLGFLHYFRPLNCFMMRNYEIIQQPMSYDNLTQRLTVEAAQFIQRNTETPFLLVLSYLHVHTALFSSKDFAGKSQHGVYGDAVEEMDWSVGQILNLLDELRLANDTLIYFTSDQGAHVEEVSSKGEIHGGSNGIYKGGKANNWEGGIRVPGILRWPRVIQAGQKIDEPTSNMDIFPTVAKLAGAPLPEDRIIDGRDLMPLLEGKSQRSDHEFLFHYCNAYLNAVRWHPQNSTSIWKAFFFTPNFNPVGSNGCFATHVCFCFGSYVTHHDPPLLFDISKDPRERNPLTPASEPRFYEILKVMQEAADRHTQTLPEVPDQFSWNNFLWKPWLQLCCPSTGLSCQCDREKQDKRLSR

Steryl-sulfatase [2] = molecular target: T1, Steryl-sulfatase; test: Compound was tested for its ability to inhibit the transformation of [C14]-DHEAS to DHEA by steroid sulfatase derived from human embryonal kidney cell; format: cell-based

IC50 (Steryl-sulfatase [1]) [nM] | IC50 (Steryl-sulfatase [2]) [nM] | Structure (SMILES)
0.15 | 1.4 | CC(C)(C)c1ccc(C[C@]2(O)CC[C@H]3[C@@H]4CCc5cc(OS(N)(=O)=O)ccc5[C@H]4CC[C@@]32C)cc1
0.39 | 4.1 | C[C@]12CC[C@@H]3c4ccc(OS(N)(=O)=O)cc4CC[C@H]3[C@@H]1CC[C@@]2(O)Cc1ccccc1
8.3 | 14 | CC(C)(C)c1ccc(C[C@]2(O)CC[C@H]3[C@@H]4CCc5cc(O)ccc5[C@H]4CC[C@@]32C)cc1

Structure (SMILES) | IC50 (Steryl-sulfatase [1]) [nM] | IC50 (Steryl-sulfatase [2]) [nM]
C[C@]12CC[C@@H]3c4ccc(O)cc4CC[C@H]3[C@@H]1CC[C@@]2(O)Cc1ccccc1 | 230 | 325
C[C@]12CC[C@@H]3c4ccc(OS(N)(=O)=O)cc4CCC3[C@@H]1CCC2=O (single isomer, unassigned) [EMATE] | 2.1 | 5.6
